Data: patent US7119262B1, “Production of transgenic poinsettia” (priority 1997, dated 2006)
Read-outs that look alike come from different tables or passages of the source. Where no end group is shown, it is not given here.

How the values were obtained:
[1] = tested on: Bemisia; assay: Whitefly artificial feeding study with tryptamine-supplemented diets; assay type: in vivo, Bemisia tabaci; settings: artificial diet
Experimental: To assess whether tryptamine was acutely toxic to whitefly, artificial feeding studies were conducted in which whiteflies were fed artificial diets supplemented with a range of tryptamine concentrations.

[2] = tested on: Erwinia carotovora; settings: 24 h
[3] = tested on: Rhyzoctonia solani R2; settings: 24 h
[4] = tested on: Phytophthora parasitica (petunia)
[5] = tested on: Fusarium graminearum; settings: non-germinated spores, 24 hrs
[6] = tested on: Pseudomonas syringae; settings: 24 h
[7] = tested on: Thielaviopsis basicola; settings: 24 h
[8] = tested on: Botrytis cinerea; settings: 24 h
[9] = tested on: Phytophthora parasitica (vinca); settings: vinca isolate, 24 hrs
[10] = tested on: Fusarium solani; settings: 24 h
[11] = tested on: bacterial and fungal phytopathogens; assay: In vitro anti-microbial activity of lytic peptides (statement in words); assay type: cell-based
[12] = tested on: ethylene-induced epinasty; settings: plants sprayed with 4 mM solution, 18 hrs later exposed to ethylene for 24 hours
Experimental: To test for ethylene sensitivity, untransformed and transgenic poinsettia plants were exposed to 15 μl/liter ethylene for 24 hours to induce epinasty.
At 18 hrs after STS treatment, the STS-treated poinsettias were exposed to ethylene for 24 hours.

[13] = petunia isolate, germinated spores, 24 hrs

For `NCCc1c[nH]c2ccccc12` [Tryptamine, tryptamine], the “tryptamine concentration toxic to Bemisia” value [1] was 50 to 100 µg/mL.

With “GIGKFLHSAKKFGKAFVGEIMNS [Mag 2, magainin 2, reference compound]” the “Minimum Inhibitory Concentration” value [2] was 32 µg/mL, the “Minimum Inhibitory Concentration” value [3] was 16 to 32 µg/mL and the “Minimum Inhibitory Concentration” value ([4]; 24 h) was over 128 µg/mL. For the same compound, the “Minimum Inhibitory Concentration” value [5] was 4 to 8 µg/mL and the “Minimum Inhibitory Concentration” value [6] was 32 µg/mL.

GIGKFLKSAKKFGKAFVKILNS [MSI-99] was tested, and the “Minimum Inhibitory Concentration” value [3] was 16 µg/mL, the “Minimum Inhibitory Concentration” value [7] was 4 µg/mL and the “Minimum Inhibitory Concentration” value ([4]; 24 h) was 8 to 16 µg/mL. For the same compound, the “Minimum Inhibitory Concentration” value [8] was 8 µg/mL and the “Minimum Inhibitory Concentration” value [5] was 4 µg/mL.

For GMASKAGAIAGKIAKVALKAL-OH [PGL], the “Minimum Inhibitory Concentration” value [2] was 32 µg/mL, the “Minimum Inhibitory Concentration” value [3] was 16 to 32 µg/mL and the “Minimum Inhibitory Concentration” value ([9]; germinated spores) was over 128 µg/mL. For the same compound, the “Minimum Inhibitory Concentration” value ([9]; non-germinated spores) was over 256 µg/mL, the “Minimum Inhibitory Concentration” value [4, 13] was over 128 µg/mL and the “Minimum Inhibitory Concentration” value [5] was 4 to 8 µg/mL. For the same compound, the “Minimum Inhibitory Concentration” value [6] was over 64 µg/mL.

In the case of “KRKRAVKRVGRRLKKLARKIARLGVAF [Line D5-C, D5-C]”, the “Minimum Inhibitory Concentration” value [3] is reported as 32 to 64 µg/mL, the “Minimum Inhibitory Concentration” value ([9]; germinated spores) is reported as 16 to 32 µg/mL and the “Minimum Inhibitory Concentration” value ([9]; non-germinated spores) is reported as 16 µg/mL. The “Minimum Inhibitory Concentration” value [7] was 16 µg/mL, the “Minimum Inhibitory Concentration” value [10] was 4 µg/mL and the “Minimum Inhibitory Concentration” value [4, 13] was 16 to 32 µg/mL.

With MSI-55 (KIAGKIAKIAGKIAKIAGKIA) the “antibacterial and anti-fungal activity in vitro” value [11] was “potent antibacterial and anti-fungal activity”.

silver thiosulfate [STS] was tested, and the “signs of epinasty or wilting after ethylene treatment” value [12] was “little, if any, signs of epinasty or wilting”.
